Literature values as cited in patent US20230113836A1, “NEW CONJUGATES OF PEPTIDES AND POLYSACCHARIDE” (ENLITISA (SHANGHAI) PHARMACEUTICAL CO., LTD., priority 2019, published 2023).

System: Drosophila model organism
Details: Foureman et al., 1994

For C(CCOCC1CO1)COCC1CO1 (stereo not shown) [BDDE, 1,4-butanediol diglycidyl ether], the Mutagenicity is given as “mutagenic”.
